Assay results published in patent US6613308B2, “Pulmonary delivery in treating disorders of the central nervous system” (Advanced Inhalation Research, Inc., priority 2000, dated 2003).

Legend:
PZT-induced seizures = experiment: PZT-induced seizures; type: in vivo, rats; conditions: for Duration of Seizure / Minutes to Seizure Onset: mean
Procedure: The pharmacodynamic effects of a pulmonary versus oral benzodiazepine-type drug, alprazolam, were evaluated using a standard pre-clinical test of anxiolytic drug action. In this test, the chemical convulsant pentylenetetrazol (PZT), which is known to produce well characterized seizures in rodents, was administered to rats. The test was selected based on its sensitivity to a wide range of benzodiazapines and to the fact that the relative potency of benzodiazapines in blocking PZT-induced seizures is believed to be similar to the magnitude of their anti-anxiety effects in humans. The ability of alprazolam to block PZT-induced seizures was used as a measure of the pharmacodynamic effects of alprazolm.
Determinations of the […] activity of alprazolam were made following oral gavage, or insufflation directly into the lungs of rats. Alprazolam (Sigma, St. Louis, Mo. was administered via aerodynamically light particles which included 10% alprazolam, 20% sodium citrate, 10% calcium chloride and 60% DPPC. For oral delivery, alprazolam was suspended in light corn syrup and administered via gavage. For pulmonary delivery, an insufflation technique was used. Animals were briefly anesthetized with isoflurane (1-2%) and a laryngoscope was used to visualize the epiglottis and the blunt-tip insufflation device (PennCentury Insufflation powder delivery device) was inserted into the airway. A bolus of air (3 cc), from an attached syringe, was used to deliver the pre-loaded powder from the chamber of the device into the animals' lungs. The doses for pulmonary delivery were 0 (blank particles that included 20% sodium citrate, 10% calcium chloride and 70% DPPC), 0.088, 0.175, or 0.35 mgs total alprazolam, and the doses for oral delivery were 0, 0.088, 0.175, 0.35, 0.70, 1.75, or 3.50 mgs total alprazolam. These doses were chosen to encompass the range of effective and ineffective oral doses. Accordingly, any potential benefits of pulmonary delivery could be directly compared to the oral dose response curve for alprazolam.
For both oral and pulmonary delivery, alprazolam was administered either 10 or 30 minutes prior to PZT, obtained from Sigma, St. Louis, Mo., (60 mg/kg given i.p). To control for potential interactions between alprazolam and isoflurane, all animals receiving oral alprazolam also received isoflurane immediately following dosing as described above. For all animals, the number of seizures as well as the time to seizure onset and seizure duration was recorded for 45 minutes after administration of PZT.

[1] = 14C levels in plasma, brain and peripheral organs after 14C-carboplatin IV or pulmonary administration; type: in vivo, rat; conditions: 10 minutes; for Plasma Levels of 14C: 100 μCi/8 mg
Procedure: Blood, brain and peripheral organ levels of ^14C were determined following administration of ^14C-Carboplatin via either IV or pulmonary administration. A total of 100 μCi of radiolabeled carboplatin was mixed with unlabelled carboplatin to provide a total drug concentration of 8 mg/rat. All animals were anesthetized using ketamine. For IV administration, carboplatin was administered via a previously placed femoral cannula. For pulmonary administration, a 24 gauge catheter was placed within the trachea and the carboplatin was administered using a Harvard ventilator over a 3-5 second period using a tidal volume of 1 ml and 100 strokes/minutes. Blood samples were taken at 10 minutes post drug administration (N=6 per time point for each group). Brains were removed and dissected into various regions including the olfactory, frontal, and occipital cortices, the hippocampus, striatum, and cerebellum. Peripheral organs included the kidneys, spleen, heart, testes, and muscle. All samples were then processed for determinations of ^14C levels using scintillation.
Absolute plasma levels of ^14C were higher following IV administration. […] This point is clearer when the ratio of brain to blood ^14C levels was calculated. […] Absolute levels of ^14C in peripheral tissue was also lower following pulmonary administration (92% lower relative to IV). In contrast to the large differences in selectivity seen in the brain, the relative peripheral selectivity (derived from dividing the levels of radioactivity in peripheral organs by that in the blood) was only 47% higher in the pulmonary group.

[2] = oral, 10 minutes prior to PZT, 0.35 mgs
[3] = oral, 10 minutes prior to PZT, 0.70 mgs
[4] = oral, 10 minutes prior to PZT, 1.75 mgs
[5] = oral, 10 minutes prior to PZT, 3.50 mgs
[6] = oral, 30 minutes prior to PZT, 0.088 mgs
[7] = oral, 30 minutes prior to PZT, 0.175 mgs
[8] = oral, 30 minutes prior to PZT, 0.35 mgs
[9] = pulmonary, 10 minutes prior to PZT, 0.088 mgs
[10] = pulmonary, 10 minutes prior to PZT, 0.175 mgs
[11] = pulmonary, 10 minutes prior to PZT, 0.35 mgs
[12] = pulmonary, 10 minutes prior to PZT, 0.35 mgs, listed as alprazolam
[13] = pulmonary, 30 minutes prior to PZT, 0.088 mgs
[14] = pulmonary, 30 minutes prior to PZT, 0.175 mgs
[15] = pulmonary, 30 minutes prior to PZT, 0.35 mgs

## Cc1nnc2n1-c1ccc(Cl)cc1C(c1ccccc1)=NC2 [Alprazolam, alprazolam]
PZT-induced seizures; 10 minutes prior to PZT, 0.088 vs 3.50 mgs
  pulmonary dose lower than maximally effective oral dose for comparable decrease in seizure duration: ~40 fold
PZT-induced seizures; 10 minutes prior to PZT, 0.35 vs 3.50 mgs
  oral dose relative to pulmonary dose for comparable time to seizure onset: 10 times
PZT-induced seizures; 10 minutes prior to PZT, 3.50 vs 0.35 mgs
  oral dose required relative to pulmonary dose for comparable seizure suppression: approximately 10 times
PZT-induced seizures; oral, 10 minutes prior to PZT
  lowest oral dose that significantly increases time to seizure onset: 1.75 mgs
  maximally effective oral dose on seizure duration: 3.50 mgs
PZT-induced seizures; [2]
  Animals With Seizures: 13/15
  Animals With Seizures (%): (87%)
  Duration of Seizure: 88.0 s
  Minutes to Seizure Onset: 11.49 min
PZT-induced seizures; [3]
  Animals With Seizures: 13/15
  Animals With Seizures (%): (87%)
  Duration of Seizure: 62.07 s
  Minutes to Seizure Onset: 9.24 min
PZT-induced seizures; [4]
  Animals With Seizures: 7/15
  Animals With Seizures (%): (47%)
  Duration of Seizure: 14.47 s
  Minutes to Seizure Onset: 29.03 min
PZT-induced seizures; [5]
  Animals With Seizures: 2/14
  Animals With Seizures (%): (14%)
  Duration of Seizure: 5.40 s
  Minutes to Seizure Onset: 43.37 min
PZT-induced seizures; [6]
  Animals With Seizures: 11/15
  Animals With Seizures (%): (73%)
  Duration of Seizure: 46.0 s
  Minutes to Seizure Onset: 18.38 min
PZT-induced seizures; [7]
  Animals With Seizures: 7/15
  Animals With Seizures (%): (47%)
  Duration of Seizure: 15.0 s
  Minutes to Seizure Onset: 33.10 min
PZT-induced seizures; [8]
  Animals With Seizures: 4/15
  Animals With Seizures (%): (27%)
  Duration of Seizure: 19.0 s
  Minutes to Seizure Onset: 37.58 min
PZT-induced seizures; oral, 30 minutes prior to PZT, 0.35 mgs, listed as alprazolam
  Animals With Seizures (%): 27%
PZT-induced seizures; [9]
  Animals With Seizures: 5/15
  Animals With Seizures (%): (33%)
  Duration of Seizure: 7.0 s
  Minutes to Seizure Onset: 36.71 min
PZT-induced seizures; pulmonary, 10 minutes prior to PZT, 0.088 mgs, listed as alprazolam
  Animals With Seizures (%): 33%
PZT-induced seizures; [10]
  Animals With Seizures: 3/15
  Animals With Seizures (%): (20%)
  Duration of Seizure: 8.0 s
  Minutes to Seizure Onset: 38.61 min
PZT-induced seizures; [11]
  Animals With Seizures: 2/15
  Animals With Seizures (%): (13%)
  Duration of Seizure: 4.0 s
  Minutes to Seizure Onset: 42.28 min
PZT-induced seizures; [12]
  Animals With Seizures (%): 13%
  Minutes to Seizure Onset: > 42 min
PZT-induced seizures; [13]
  Animals With Seizures: 9/15
  Animals With Seizures (%): (60%)
  Duration of Seizure: 82.67 s
  Minutes to Seizure Onset: 18.47 min
PZT-induced seizures; [14]
  Animals With Seizures: 5/15
  Animals With Seizures (%): (33%)
  Duration of Seizure: 16.07 s
  Minutes to Seizure Onset: 34.05 min
PZT-induced seizures; [15]
  Animals With Seizures: 2/15
  Animals With Seizures (%): (13%)
  Duration of Seizure: 2.69 s
  Minutes to Seizure Onset: 41.98 min

## N.N.O=C([O-])C1(C(=O)[O-])CCC1.[Pt+2] [carboplatin]
[1]; IV
  Absolute Brain Levels: 29.47 nCi/gram
  Absolute Tissue Levels (Peripheral Organs), excludes kidney: 0.03
  Relative Brain Selectivity (Brain/Blood): 0.03
  Relative Peripheral Selectivity (Peripheral/Blood), excludes kidney: 0.44
  Plasma Levels of 14C: 994.348
[1]; Lung vs IV
  Absolute Tissue Levels (Peripheral Organs) (% Difference): +2833%
  Plasma Levels (% Difference): −89.72%
[1]; Lung
  Absolute Brain Levels: 27.29 nCi/gram
  Absolute Tissue Levels (Peripheral Organs), excludes kidney: 0.88
  Relative Brain Selectivity (Brain/Blood): 0.88
  Relative Peripheral Selectivity (Peripheral/Blood), excludes kidney: 0.65
  Plasma Levels of 14C: 102.215
[1]; pulmonary vs IV
  Absolute levels of 14C in peripheral tissue, lower relative to IV: 92%
